# According to patent US20240209027A1, “PEPTIDE AND PEPTIDE-CONTAINING COMPOSITION” (PeptiAID Inc.,, priority 2021, published 2024):
# Where two headings read alike, the source gives them in different places. Starred links: 1 amine or outer side, 2 acyl side, 3 side chain; linkers in the order of their positions; H or OH if unused. Positions of bridges follow the written chain, without caps; N, C: chain ends. Non-standard residues stand in square brackets, D forms with d. Residues, ends and D or L forms follow the SMILES beside them. Chains are numbered I, II in the order given. *: point of attachment. X5 = O=C(O)CCCCCCCCCCCCC(=O)N[C@@H](CCC(=O)N[C@@H](CCCCN*)C(=O)O)C(=O)O; X4 = O=C(O)CCCCCCCCCCC(=O)N[C@@H](CCC(=O)N[C@@H](CCCCN*)C(=O)O)C(=O)O; Ala(piperidin-4-yl) = O=C([C@H](CC1CCN([*:3])CC1)N[*:1])[*:2]; Phe(4-COOH) = N[C@@H](Cc1ccc(C(=O)O)cc1)C(=O)O; X3 = O=C(O)CN1CCC(N[*:1])(C(=O)[*:2])CC1; Phe(4-F) = N[C@@H](Cc1ccc(F)cc1)C(=O)O; C12 diacid = O=C(O)CCCCCCCCCCC(=O)*; NMeF = CN[C@@H](Cc1ccccc1)C(=O)O; X1 = C[C@@H](Cc1ccc(O)cc1)C(=O)*; NMeE = CN[C@@H](CCC(=O)O)C(=O)O; dNMeE = CN[C@H](CCC(=O)O)C(=O)O; Cha = N[C@@H](CC1CCCCC1)C(=O)O; Cit = NC(=O)NCCC[C@H](N)C(=O)O; dNMeD = CN[C@H](CC(=O)O)C(=O)O; NMeNle = CCCC[C@H](NC)C(=O)O; hCys = N[C@@H](CCS)C(=O)O; X2 = O=C(C[*:1])[*:2]; Aib = CC(C)(N)C(=O)O
# Legend:
# [1] = system: SARS-CoV2 (USA WA1/2020 strain); details: 72 h
# [2] = system: SARS-CoV-2 (JPN/TY/WK-521 strain); assay type: cell-based; design: key: the case where the peptide was found to have anti-SARS-CoV-2 activity when added at 50 nM was designated as “2”; the case where no activity was found upon the addition at 50 nM but the activity was found at 1 μM was designated as “1”; details: peptide added at 50 nM or 1 μM
# [3] = in vitro; details: African green monkey
# [4] = system: SARS-CoV-2 Wuhan strain
# [5] = system: SARS-CoV-2 Delta strain
SMILES,IC50 [1] [nM],CC50 at 72 h [3] [nM],IC50 [4] [nM],IC50 [5] [nM],other results
CCCC[C@H]1C(=O)NC(C)(C)C(=O)N[C@@H](CC2CCCCC2)C(=O)N[C@@H](Cc2ccc(F)cc2)C(=O)N[C@H](CC(=O)O)C(=O)N[C@@H](Cc2ccc(O)cc2)C(=O)N[C@@H](Cc2ccc(O)cc2)C(=O)N[C@@H](Cc2ccc(C(=O)O)cc2)C(=O)N[C@H](CCCNC(=N)N)C(=O)N[C@@H](CC2CCCCC2)C(=O)N[C@H](C(N)=O)CSCC(=O)N(C)[C@@H](CCC(=O)O)C(=O)N1C [Peptide 5555_p003] ({CH2CO}-[NMeE][NMeNle][Aib][Cha][Phe(4-F)][dD]YY[Phe(4-COOH)][dR][Cha]C-NH2; thioether N-12),4.5,> 100000,,,Anti-SARS-CoV-2 activity [2]: 2
CCCC[C@H]1C(=O)NC(C)(C)C(=O)N[C@@H](CC2CCCCC2)C(=O)N[C@@H](Cc2ccc(F)cc2)C(=O)N(C)[C@@H](CCC(=O)O)C(=O)N[C@@H](Cc2ccc(O)cc2)C(=O)N[C@@H](Cc2ccc(O)cc2)C(=O)N[C@@H](Cc2ccc(C(=O)O)cc2)C(=O)N[C@H](CCCNC(=N)N)C(=O)N[C@@H](CC2CCCCC2)C(=O)N[C@H](C(N)=O)CSCC(=O)N(C)[C@@H](CCC(=O)O)C(=O)N1C [Peptide 5555_p005] ({CH2CO}-[NMeE][NMeNle][Aib][Cha][Phe(4-F)][NMeE]YY[Phe(4-COOH)][dR][Cha]C-NH2; thioether N-12),5,> 100000,,,
CCCC[C@H]1C(=O)NC(C)(C)C(=O)N[C@@H](CC2CCCCC2)C(=O)N[C@@H](Cc2ccc(F)cc2)C(=O)N[C@H](CC(=O)O)C(=O)N[C@@H](Cc2ccc(O)cc2)C(=O)N[C@@H](Cc2ccc(O)cc2)C(=O)N[C@@H](Cc2ccc(C(=O)O)cc2)C(=O)N[C@@H](CC2CCNCC2)C(=O)N[C@@H](CC2CCCCC2)C(=O)N[C@H](C(=O)N[C@H](CCC(=O)O)C(N)=O)CSCC(=O)N(C)[C@@H](CCC(=O)O)C(=O)N1C [Peptide 5555_p026] ({CH2CO}-[NMeE][NMeNle][Aib][Cha][Phe(4-F)][dD]YY[Phe(4-COOH)][Ala(piperidin-4-yl)][Cha]C[dE]-NH2; thioether N-12),8.1,,,,Anti-SARS-CoV-2 activity [2]: 2
CCCC[C@H]1C(=O)NC(C)(C)C(=O)N[C@@H](CC2CCCCC2)C(=O)N[C@@H](Cc2ccc(F)cc2)C(=O)N(C)[C@@H](CCC(=O)O)C(=O)N[C@@H](Cc2ccc(O)cc2)C(=O)N[C@@H](Cc2ccc(O)cc2)C(=O)N[C@@H](Cc2ccc(C(=O)O)cc2)C(=O)N[C@H](CCCNC(=N)N)C(=O)N[C@@H](CC2CCCCC2)C(=O)N[C@H](C(=O)N[C@H](CCC(=O)O)C(N)=O)CSCC(=O)N(C)[C@@H](CCC(=O)O)C(=O)N1C [Peptide 5555_p039] ({CH2CO}-[NMeE][NMeNle][Aib][Cha][Phe(4-F)][NMeE]YY[Phe(4-COOH)][dR][Cha]C[dE]-NH2; thioether N-12),7.4,> 100000,,,
CN1C(=O)CSC[C@@H](C(=O)N[C@H](CCC(=O)O)C(N)=O)NC(=O)[C@H](CC2CCCCC2)NC(=O)[C@H](CCCCN)NC(=O)[C@H](Cc2ccc(C(=O)O)cc2)NC(=O)[C@H](Cc2ccc(O)cc2)NC(=O)[C@H](Cc2ccc(O)cc2)NC(=O)[C@H](CCC(=O)O)N(C)C(=O)[C@H](Cc2ccc(F)cc2)NC(=O)[C@H](CC2CCCCC2)NC(=O)[C@H](CO)NC(=O)[C@H](Cc2ccccc2)N(C)C(=O)[C@@H]1CCC(=O)O [Peptide 5555_p088] ({CH2CO}-[NMeE][NMeF]S[Cha][Phe(4-F)][NMeE]YY[Phe(4-COOH)]K[Cha]C[dE]-NH2; thioether N-12),11.4,> 100000,,,
CN1C(=O)CSC[C@@H](C(=O)N[C@H](CCC(=O)O)C(N)=O)NC(=O)[C@H](CC2CCCCC2)NC(=O)[C@H](CCCCN)NC(=O)[C@H](CCCNC(N)=O)NC(=O)[C@H](Cc2ccc(O)cc2)NC(=O)[C@H](Cc2ccc(O)cc2)NC(=O)[C@H](CCC(=O)O)N(C)C(=O)[C@H](Cc2ccc(F)cc2)NC(=O)[C@H](CC2CCCCC2)NC(=O)[C@H](CO)NC(=O)[C@H](Cc2ccccc2)N(C)C(=O)[C@@H]1CCC(=O)O [Peptide 5555_p092] ({CH2CO}-[NMeE][NMeF]S[Cha][Phe(4-F)][NMeE]YY[Cit]K[Cha]C[dE]-NH2; thioether N-12),4.1,> 100000,,,"Anti-SARS-CoV-2 activity ([2]; VeroE6/TMPRSS2 cells, JPN/TY/WK-521 strain, 24 hours): 2"
CN1C(=O)CSC[C@@H](C(=O)N[C@H](CCC(=O)O)C(=O)O)NC(=O)[C@H](CC2CCCCC2)NC(=O)[C@H](CC2CCNCC2)NC(=O)[C@H](Cc2ccc(C(=O)O)cc2)NC(=O)[C@H](Cc2ccc(O)cc2)NC(=O)[C@H](Cc2ccc(O)cc2)NC(=O)[C@H](CCC(=O)O)N(C)C(=O)[C@H](Cc2ccc(F)cc2)NC(=O)[C@H](CC2CCCCC2)NC(=O)C(C)(C)NC(=O)[C@H](Cc2ccccc2)N(C)C(=O)[C@@H]1CCC(=O)O [Peptide 5555_p119] ({CH2CO}-[NMeE][NMeF][Aib][Cha][Phe(4-F)][NMeE]YY[Phe(4-COOH)][Ala(piperidin-4-yl)][Cha]C[dE]-OH; thioether N-12),18.2,> 100000,,,
CCCC[C@H]1C(=O)NC(C)(C)C(=O)N[C@@H](CC2CCCCC2)C(=O)N[C@@H](Cc2ccc(F)cc2)C(=O)NC2(CCN(CC(=O)O)CC2)C(=O)N[C@@H](Cc2ccc(O)cc2)C(=O)N[C@@H](Cc2ccc(O)cc2)C(=O)N[C@@H](Cc2ccc(C(=O)O)cc2)C(=O)N[C@@H](CC2CCNCC2)C(=O)N[C@@H](CC2CCCCC2)C(=O)N[C@H](C(=O)N[C@H](CCC(=O)O)C(N)=O)CSCC(=O)N(C)[C@@H](CCC(=O)O)C(=O)N1C [Peptide 5555_p173] ({CH2CO}-[NMeE][NMeNle][Aib][Cha][Phe(4-F)][X3]YY[Phe(4-COOH)][Ala(piperidin-4-yl)][Cha]C[dE]-NH2; thioether N-12),,,6.8,,
CCCC[C@H]1C(=O)NC(C)(C)C(=O)N[C@@H](CC2CCCCC2)C(=O)N[C@@H](Cc2ccc(F)cc2)C(=O)N(C)[C@H](CCC(=O)O)C(=O)N[C@@H](Cc2ccc(O)cc2)C(=O)N[C@@H](Cc2ccc(O)cc2)C(=O)N[C@@H](Cc2ccc(C(=O)O)cc2)C(=O)N[C@@H](CC2CCNCC2)C(=O)N[C@@H](CC2CCCCC2)C(=O)N[C@H](C(=O)N[C@H](CCC(=O)O)C(N)=O)CSCC(=O)N(C)[C@@H](CCC(=O)O)C(=O)N1C [Peptide 5555_p175] ({CH2CO}-[NMeE][NMeNle][Aib][Cha][Phe(4-F)][dNMeE]YY[Phe(4-COOH)][Ala(piperidin-4-yl)][Cha]C[dE]-NH2; thioether N-12),,,34.5,,
CCCC[C@H]1C(=O)NC(C)(C)C(=O)N[C@@H](CC2CCCCC2)C(=O)N[C@@H](Cc2ccc(F)cc2)C(=O)N(C)[C@H](CC(=O)O)C(=O)N[C@@H](Cc2ccc(O)cc2)C(=O)N[C@@H](Cc2ccc(O)cc2)C(=O)N[C@@H](Cc2ccc(C(=O)O)cc2)C(=O)N[C@@H](CC2CCNCC2)C(=O)N[C@@H](CC2CCCCC2)C(=O)N[C@H](C(=O)N[C@H](CCC(=O)O)C(N)=O)CSCC(=O)N(C)[C@@H](CCC(=O)O)C(=O)N1C [Peptide 5555_p176] ({CH2CO}-[NMeE][NMeNle][Aib][Cha][Phe(4-F)][dNMeD]YY[Phe(4-COOH)][Ala(piperidin-4-yl)][Cha]C[dE]-NH2; thioether N-12),,,13.6,13.7,
CCCC[C@@H](C(=O)NC(C)(C)C(=O)N[C@@H](CC1CCCCC1)C(=O)N[C@@H](Cc1ccc(F)cc1)C(=O)N[C@H](CC(=O)O)C(N)=O)N(C)C(=O)[C@H](CCC(=O)O)N(C)C(=O)CSCC[C@H](NC(=O)[C@H](CC1CCCCC1)NC(=O)[C@@H](CCCCN)NC(=O)[C@H](CCCNC(N)=O)NC(=O)[C@H](Cc1ccc(O)cc1)NC(=O)[C@@H](C)Cc1ccc(O)cc1)C(=O)N[C@H](CCC(=O)O)C(=O)N[C@H](CCCCNC(=O)CCCCCCCCCCC(=O)O)C(N)=O [Peptide 5555_p221] (I: X1-Y[Cit][dK][Cha][hCys][dE][dK](C12 diacid)-NH2 / II: [NMeE][NMeNle][Aib][Cha][Phe(4-F)][dD]-NH2; linker I:5-II:N via X2),,,17.7,18.6,
CCCC[C@H]1C(=O)NC(C)(C)C(=O)N[C@@H](CC2CCCCC2)C(=O)N[C@@H](Cc2ccc(F)cc2)C(=O)N[C@H](CC(=O)O)C(=O)N[C@@H](Cc2ccc(O)cc2)C(=O)N[C@@H](Cc2ccc(O)cc2)C(=O)N[C@@H](CCCNC(N)=O)C(=O)N[C@H](CCCCN)C(=O)N[C@@H](CC2CCCCC2)C(=O)N[C@H](C(=O)N[C@H](CCC(=O)O)C(=O)NCCCC[C@H](NC(=O)CC[C@H](NC(=O)CCCCCCCCCCC(=O)O)C(=O)O)C(=O)O)CSCC(=O)N(C)[C@@H](CCC(=O)O)C(=O)N1C [Peptide 5555_p234] ({CH2CO}-[NMeE][NMeNle][Aib][Cha][Phe(4-F)][dD]YY[Cit][dK][Cha]C[dE]-X4; thioether N-12),,,,42,
CCCC[C@H]1C(=O)NC(C)(C)C(=O)N[C@@H](CC2CCCCC2)C(=O)N[C@@H](Cc2ccc(F)cc2)C(=O)N[C@H](CC(=O)O)C(=O)N[C@@H](Cc2ccc(O)cc2)C(=O)N[C@@H](Cc2ccc(O)cc2)C(=O)N[C@@H](CCCNC(N)=O)C(=O)N[C@H](CCCCN)C(=O)N[C@@H](CC2CCCCC2)C(=O)N[C@H](C(=O)N[C@H](CCC(=O)O)C(=O)NCCCC[C@H](NC(=O)CC[C@H](NC(=O)CCCCCCCCCCCCC(=O)O)C(=O)O)C(=O)O)CSCC(=O)N(C)[C@@H](CCC(=O)O)C(=O)N1C [Peptide 5555_p235] ({CH2CO}-[NMeE][NMeNle][Aib][Cha][Phe(4-F)][dD]YY[Cit][dK][Cha]C[dE]-X5; thioether N-12),,,,57,
